# Laboratory results from patent US7250442B2, “Dihydroindol-2-one derivatives as steroid hormone nuclear receptor modulators” (Eli Lilly and Company, priority 2003, dated 2007).
# Molecular target: T1, human MR (Homo sapiens, UniProt P08235)
# T1 construct: The full length human MR gene is cloned from a human kidney or human brain cDNA library; made in house; host or cells: Sf9 insect cells (baculovirus, pAcHLT transfer vector)
# T1 sequence (P08235 1-984): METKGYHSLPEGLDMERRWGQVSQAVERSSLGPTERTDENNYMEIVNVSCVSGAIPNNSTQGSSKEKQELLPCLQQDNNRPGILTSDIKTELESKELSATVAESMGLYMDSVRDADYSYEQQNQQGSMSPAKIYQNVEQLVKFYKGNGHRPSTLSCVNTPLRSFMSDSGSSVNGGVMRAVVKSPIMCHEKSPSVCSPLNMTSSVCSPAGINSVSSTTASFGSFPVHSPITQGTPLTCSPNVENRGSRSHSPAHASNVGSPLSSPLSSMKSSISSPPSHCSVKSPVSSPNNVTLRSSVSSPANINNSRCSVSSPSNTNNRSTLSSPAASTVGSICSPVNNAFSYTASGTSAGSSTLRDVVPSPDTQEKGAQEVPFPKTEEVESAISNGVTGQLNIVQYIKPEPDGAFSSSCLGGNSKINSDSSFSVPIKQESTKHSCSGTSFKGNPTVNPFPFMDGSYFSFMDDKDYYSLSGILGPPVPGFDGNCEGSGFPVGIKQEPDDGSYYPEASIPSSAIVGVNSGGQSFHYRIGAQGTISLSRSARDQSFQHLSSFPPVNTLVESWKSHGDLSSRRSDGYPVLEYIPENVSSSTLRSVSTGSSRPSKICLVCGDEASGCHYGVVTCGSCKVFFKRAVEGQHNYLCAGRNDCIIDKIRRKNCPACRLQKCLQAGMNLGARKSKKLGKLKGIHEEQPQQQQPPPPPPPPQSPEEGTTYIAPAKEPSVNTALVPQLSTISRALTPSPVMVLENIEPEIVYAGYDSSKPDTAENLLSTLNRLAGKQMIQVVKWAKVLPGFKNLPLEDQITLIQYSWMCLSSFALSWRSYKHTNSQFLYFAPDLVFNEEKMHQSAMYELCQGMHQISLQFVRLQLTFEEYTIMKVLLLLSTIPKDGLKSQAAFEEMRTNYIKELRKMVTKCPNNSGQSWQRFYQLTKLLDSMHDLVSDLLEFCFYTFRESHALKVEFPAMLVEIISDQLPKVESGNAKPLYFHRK
# Test: Mineralocorticoid Receptor Binding Assay ([3H]-aldosterone displacement)
# Conditions: full length human MR expressed in Sf9 cells, 0.5 nM [3H]-aldosterone
# How it was run: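 Full-length human MR expressed in Sf9 cells; lysate (20-25 μg protein) incubated with 0.5 nM [3H]-aldosterone and test compound in molybdate/Tris/phosphate/glycerol buffer pH 7.5, 16 h at 4 °C. Bound ligand measured by filtration and scintillation counting; IC50 converted to Ki via Cheng-Prusoff.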
row,SMILES,Ki [nM]
1,"Cc1cc(C2(c3cc(C)c(O)c(C)c3)C(=O)N(Cc3noc(C4CCC4)n3)c3ccccc32)cc(C)c1O [Example 86, 1-(5-Cyclobutyl-[1,2,4]oxadiazol-3-ylmethyl)-3,3-bis-(4-hydroxy-3,5-dimethyl-phenyl)-1,3-dihydro-indol-2-one]",≤ 500
2,"Cc1cc(C2(c3cc(C)c(O)c(C)c3)C(=O)N(Cc3noc(-c4ccco4)n3)c3ccccc32)cc(C)c1O [Example 87, 1-(5-Furan-2-yl-[1,2,4]oxadiazol-3-ylmethyl)-3,3-bis-(4-hydroxy-3,5-dimethyl-phenyl)-1,3-dihydro-indol-2-one]",≤ 500
3,"Cc1ccc2c(c1)C(c1cc(C)c(O)c(C)c1)(c1cc(C)c(O)c(C)c1)C(=O)N2Cc1csc(-c2ccccc2)n1 [Example 92, 3,3-Bis-(4-hydroxy-3,5-dimethyl-phenyl)-5-methyl-1-(2-phenyl-thiazol-4-ylmethyl)-1,3-dihydro-indol-2-one]",≤ 500
4,"COc1ccc(-c2nc(CN3C(=O)C(c4cc(C)c(O)c(C)c4)(c4cc(C)c(O)c(C)c4)c4ccccc43)cs2)cc1 [Example 94, 3,3-Bis-(4-hydroxy-3,5-dimethyl-phenyl)-1-[2-(4-methoxy-phenyl)-thiazol-4-ylmethyl]-1,3-dihydro-indol-2-one]",≤ 500
5,"COc1ccc(-c2nc(CN3C(=O)C(c4cc(C)c(O)c(C)c4)(c4cc(C)c(O)c(C)c4)c4cc(C)ccc43)cs2)cc1 [Example 95, 3,3-Bis-(4-hydroxy-3,5-dimethyl-phenyl)-1-[2-(4-methoxy-phenyl)-thiazol-4-ylmethyl]-5-methyl-1,3-dihydro-indol-2-one]",≤ 500
6,"Cc1cc(C2(c3cc(C)c(O)c(C)c3)C(=O)N(Cc3ccc4ccccc4n3)c3ccccc32)cc(C)c1O [Example 97, 3,3-Bis-(4-hydroxy-3,5-dimethyl-phenyl)-1-quinolin-2-ylmethyl-1,3-dihydro-indol-2-one]",≤ 500
7,"COc1ccc(-c2nc(CN3C(=O)C(c4cc(C)c(O)c(C)c4)(c4cc(C)c(O)c(C)c4)c4ccccc43)no2)cc1 [Example 99, 3,3-Bis-(4-hydroxy-3,5-dimethyl-phenyl)-1-[5-(4-methoxy-phenyl)-[1,2,4]oxadiazol-3-ylmethyl]-1,3-dihydro-indol-2-one]",≤ 500
8,"C#CCN1C(=O)C(c2cc(C)c(O)c(C)c2)(c2cc(C)c(O)c(C)c2)c2ccccc21 [Example 101, 3,3-Bis-(4-hydroxy-3,5-dimethyl-phenyl)-1-prop-2-ynyl-1,3-dihydro-indol-2-one]",≤ 500
9,"C=C(C)CN1C(=O)C(c2cc(C)c(O)c(C)c2)(c2cc(C)c(O)c(C)c2)c2ccccc21 [Example 106, 3,3-Bis-(4-hydroxy-3,5-dimethyl-phenyl)-1-(2-methyl-allyl)-1,3-dihydro-indol-2-one]",≤ 500
10,"CCOC(=O)CN1C(=O)C(c2cc(C)c(O)c(C)c2)(c2cc(C)c(O)c(C)c2)c2ccccc21 [Example 109, [3,3-Bis-(4-hydroxy-3,5-dimethyl-phenyl)-2-oxo-2,3-dihydro-indol-1-yl]-acetic acid ethyl ester]",≤ 500
11,"Cc1cc(C2(c3cc(C)c(O)c(C)c3)C(=O)N(CCC3CCCCC3)c3ccccc32)cc(C)c1O [Example 110, 1-(2-Cyclohexyl-ethyl)-3,3-bis-(4-hydroxy-3,5-dimethyl-phenyl)-1,3-dihydro-indol-2-one]",≤ 500
12,"Cc1cc(C2(c3cc(C)c(O)c(C)c3)C(=O)N(Cc3ccncc3)c3ccccc32)cc(C)c1O [Example 111, 3,3-Bis-(4-hydroxy-3,5-dimethyl-phenyl)-1-pyridin-4-ylmethyl-1,3-dihydro-indol-2-one]",≤ 500
13,"Cc1cc(C2(c3cc(C)c(O)c(C)c3)C(=O)N(Cc3c(F)cccc3F)c3ccccc32)cc(C)c1O [Example 115, 1-(2,6-Difluoro-benzyl)-3,3-bis-(4-hydroxy-3,5-dimethyl-phenyl)-1,3-dihydro-indol-2-one]",≤ 500
14,"Cc1cc(C2(c3cc(C)c(O)c(C)c3)C(=O)N(Cc3ccccc3N)c3ccccc32)cc(C)c1O [Example 119, 1-(2-Amino-benzyl)-3,3-bis-(4-hydroxy-3,5-dimethyl-phenyl)-1,3-dihydro-indol-2-one]",≤ 500
15,"Cc1ccc(N2C(=O)C(c3cc(C)c(O)c(C)c3)(c3cc(C)c(O)c(C)c3)c3ccccc32)cc1 [Example 125, 3,3-Bis-(4-hydroxy-3,5-dimethyl-phenyl)-1-p-tolyl-1,3-dihydro-indol-2-one]",≤ 500
16,"Cc1cc(C2(c3cc(C)c(O)c(C)c3)C(=O)N(c3ccccc3Cl)c3ccccc32)cc(C)c1O [Example 129, 1-(2-Chloro-phenyl)-3,3-bis-(4-hydroxy-3,5-dimethyl-phenyl)-1,3-dihydro-indol-2-one]",≤ 500
17,"Cc1cc(C2(c3cc(C)c(O)c(C)c3)C(=O)N(c3cccc(F)c3)c3ccccc32)cc(C)c1O [Example 130, 1-(3-Fluoro-phenyl)-3,3-bis-(4-hydroxy-3,5-dimethyl-phenyl)-1,3-dihydro-indol-2-one]",≤ 500
18,"Cc1ccccc1N1C(=O)C(c2cc(C)c(O)c(C)c2)(c2cc(C)c(O)c(C)c2)c2ccccc21 [Example 132, 3,3-Bis-(4-hydroxy-3,5-dimethyl-phenyl)-1-o-tolyl-1,3-dihydro-indo 1-2-one]",≤ 500
19,"Cc1cccc(N2C(=O)C(c3cc(C)c(O)c(C)c3)(c3cc(C)c(O)c(C)c3)c3ccccc32)c1 [Example 133, 3,3-Bis-(4-hydroxy-3,5-dimethyl-phenyl)-1-m-tolyl-1,3-dihydro-indol-2-one]",≤ 500
20,"Cc1cc(C2(c3cc(C)c(O)c(C)c3)C(=O)N(c3ccncc3)c3ccccc32)cc(C)c1O [Example 136, 3,3-Bis-(4-hydroxy-3,5-dimethyl-phenyl)-1-pyridin-4-yl-1,3-dihydro-indol-2-one]",≤ 500

# Continued, values first:
row,Ki [nM],SMILES
1,≤ 500,"Cc1cc(C2(c3cc(C)c(O)c(C)c3)C(=O)N(Cc3cccc([N+](=O)[O-])c3)c3ccccc32)cc(C)c1O [Example 85, 3,3-Bis-(4-hydroxy-3,5-dimethyl-phenyl)-1-(3-nitro-benzyl)-1,3-dihydro-indol-2-one]"
2,≤ 500,"CCc1nc(CN2C(=O)C(c3cc(C)c(O)c(C)c3)(c3cc(C)c(O)c(C)c3)c3ccccc32)cs1 [Example 90, 1-(2-Ethyl-thiazol-4-ylmethyl)-3,3-bis-(4-hydroxy-3,5-dimethyl-phenyl)-1,3-dihydro-indol-2-one]"
3,≤ 500,"Cc1cc(C2(c3cc(C)c(O)c(C)c3)C(=O)N(Cc3csc(-c4ccccc4)n3)c3ccccc32)cc(C)c1O [Example 91, 3,3-Bis-(4-hydroxy-3,5-dimethyl-phenyl)-1-(2-phenyl-thiazol-4-ylmethyl)-1,3-dihydro-indol-2-one]"
4,≤ 500,"CC(C)=CCN1C(=O)C(c2cc(C)c(O)c(C)c2)(c2cc(C)c(O)c(C)c2)c2ccccc21 [Example 102, 3,3-Bis-(4-hydroxy-3,5-dimethyl-phenyl)-1-(3-methyl-but-2-enyl)-1,3-dihydro-indol-2-one]"
5,≤ 500,"COC(=O)c1ccc(CN2C(=O)C(c3cc(C)c(O)c(C)c3)(c3cc(C)c(O)c(C)c3)c3ccccc32)o1 [Example 108, 5-[3,3-Bis-(4-hydroxy-3,5-dimethyl-phenyl)-2-oxo-2,3-dihydro-indol-1-ylmethyl]-furan-2-carboxylic acid methyl ester]"
6,≤ 500,"Cc1cc(C2(c3cc(C)c(O)c(C)c3)C(=O)N(Cc3c(Cl)cccc3Cl)c3ccccc32)cc(C)c1O [Example 113, 1-(2,6-Dichloro-benzyl)-3,3-bis-(4-hydroxy-3,5-dimethyl-phenyl)-1,3-dihydro-indol-2-one]"
7,≤ 500,"Cc1cc(C2(c3cc(C)c(O)c(C)c3)C(=O)N(c3ccccc3)c3ccccc32)cc(C)c1O [Example 126, 3,3-Bis-(4-hydroxy-3,5-dimethyl-phenyl)-1-phenyl-1,3-dihydro-indol-2-one]"
8,≤ 500,"Cc1cc(C2(c3cc(C)c(O)c(C)c3)C(=O)N(c3cccc(C(F)(F)F)c3)c3ccccc32)cc(C)c1O [Example 127, 3,3-Bis-(4-hydroxy-3,5-dimethyl-phenyl)-1-(3-trifluoromethyl-phenyl)-1,3-dihydro-indol-2-one]"
9,≤ 500,"Cc1cc(C2(c3cc(C)c(O)c(C)c3)C(=O)N(c3ccc(C(F)(F)F)cc3)c3ccccc32)cc(C)c1O [Example 131, 3,3-Bis-(4-hydroxy-3,5-dimethyl-phenyl)-1-(4-trifluoromethyl-phenyl)-1,3-dihydro-indol-2-one]"
